The text below walks through data of patent publication US10238623B2, “C14-hydroxyl esterified amino acid derivative of triptolide, and preparation method and use thereof” (HANGZHOU WEBEN PHARMACEUTICALS INC, priority 2015, dated 2019).

One assay concerns Jurkat. Description: MTT growth inhibition, Jurkat cells, 72 h. In kind it is cell-based, human. The method, then: (§1) 5000 well-grown leukemia cells or normal human blood cells were taken and seeded into wells of a 96-well cell culture plate. The medium was 1640 cell medium containing 10% fetal bovine serum. 14-D-Valine-TPL with different concentrations was added, and after being uniformly mixed, the plate was placed in a carbon dioxide (5% CO2) cell incubator, and incubated at 37° C. for 72 hours. The concentration of live cells was then determined using the MTT assay. In this experiment, the cell viability in the control group (without the compound treatment) was set to be 100%, and the cell viability (%) after the action of the compound the half maximal growth inhibitory concentration of leukemia cells at 72 hours (IC50 value at 72 hours) and the therapeutic window index were calculated. Therapeutic window index=IC50 value of normal blood cells/IC50 value of leukemia cells. […] A larger therapeutic window indicates a better selectivity of the compound for tumor cells.
(§2) 5000 well-grown leukemia cells were taken and seeded into wells of a 96-well cell culture plate. The medium was 1640 cell medium containing 10% fetal bovine serum. 14-D-Valine-TPL with different concentrations was added, and after being uniformly mixed, the plate was placed in a carbon dioxide (5% CO2) cell incubator, and incubated at 37° C. for 72 hours. The concentration of live cells was then determined using the MTT assay. In this experiment, the cell viability in the control group (without the compound treatment) was set to be 100%, and the cell viability (%) after the action of the compound and the half maximal growth inhibitory concentration of leukemia cells at 72 hours (IC50 value at 72 hours) were calculated.
as §2, with “well-grown lymphocytes” for “well-grown leukemia cells”

A further assay concerns Molt-4. Description: MTT growth inhibition, Molt-4 cells, 72 h. The class given is cell-based, human. The following applies: Homo sapiens, MOLT-4, 72 h. The method, then:
as §1, §2
as §2, with “well-grown lymphocytes” for “well-grown leukemia cells”

Another assay deals with KG-1. Description: MTT growth inhibition, KG-1 cells, 72 h. The class given is cell-based. To be noted: Homo sapiens, KG-1, MTT. Here is the method:
as §2

In a further assay the test system is U937. Description: MTT growth inhibition, U937 cells, 72 h. In kind it is cell-based. To be noted: Homo sapiens, U-937. The method, then: as §2
The target of the next assay is T1, XPB (Homo sapiens, UniProt P19447).
T1 construct: endogenous in cells; host or cells: THP-1
T1 sequence (P19447 whole entry): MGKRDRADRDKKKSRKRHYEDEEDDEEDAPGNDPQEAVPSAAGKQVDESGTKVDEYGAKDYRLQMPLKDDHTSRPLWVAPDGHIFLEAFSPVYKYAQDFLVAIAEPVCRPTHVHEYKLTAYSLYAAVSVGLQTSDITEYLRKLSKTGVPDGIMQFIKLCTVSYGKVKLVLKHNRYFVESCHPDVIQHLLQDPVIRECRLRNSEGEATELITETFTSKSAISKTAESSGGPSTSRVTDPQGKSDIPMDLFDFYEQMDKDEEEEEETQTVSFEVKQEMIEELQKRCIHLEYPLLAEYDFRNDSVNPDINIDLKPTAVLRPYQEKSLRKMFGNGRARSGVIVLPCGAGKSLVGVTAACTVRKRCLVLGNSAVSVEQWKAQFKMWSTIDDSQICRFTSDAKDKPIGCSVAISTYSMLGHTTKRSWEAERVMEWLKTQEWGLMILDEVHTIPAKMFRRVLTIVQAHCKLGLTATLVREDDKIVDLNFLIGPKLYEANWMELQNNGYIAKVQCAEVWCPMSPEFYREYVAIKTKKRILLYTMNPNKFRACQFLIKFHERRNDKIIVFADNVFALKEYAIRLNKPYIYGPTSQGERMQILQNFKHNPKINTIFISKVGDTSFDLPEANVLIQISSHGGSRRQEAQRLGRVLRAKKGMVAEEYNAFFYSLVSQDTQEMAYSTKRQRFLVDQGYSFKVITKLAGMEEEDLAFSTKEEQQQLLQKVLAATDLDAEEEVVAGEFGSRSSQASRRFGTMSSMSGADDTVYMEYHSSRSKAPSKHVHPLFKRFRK
As to the kind of experiment: Immunoblot of XPB level in THP-1 cells, 48 h. To be noted: 160 nM. In kind it is cell-based. The method, then: (§3) Well-grown leukemia cells were taken and seeded into wells of a 6-well cell culture plate, with a density of 1×10^6/ml. The medium was 1640 cell medium containing 10% fetal bovine serum. 14-D-Valine-TPL with different concentrations was added, and after being uniformly mixed, the plate was placed in a carbon dioxide (5% CO2) cell incubator, and incubated at 37° C. for 48 hours. Cellular proteins were then extracted, and the immunoblot technique was used to detect the expression levels of XPB and Pol II.
Background: Immunoblotting shows a protein as a band on a membrane.

Assay [1] relates to RNA polymerase II (Pol II). As to the kind of experiment: Immunoblot of Pol II level in THP-1 cells, 48 h. The following applies: 160 nM. The class given is cell-based, human. Here is the method:
as §3

Assay [2] deals with human leukemia cells (Jurkat, CEM, Molt-4, Sup-B15). Description: Therapeutic window over 4 types of human leukemia cells (MTT). The class given is cell-based. To be noted: for 4 different types of human leukemia cells. The method, then:
as §1

SMILES strings stand for the structures. pIC50: −log10 of the molar value.

Broadly, the pIC50 is the negative decadic logarithm of the IC50, by convention in mol/L. Low values mean a high IC50, high ones a low IC50.

Regarding `CC(C)[C@@H](N)C(=O)O[C@@H]1[C@@]2(C(C)C)O[C@H]2[C@@H]2O[C@]23[C@]12O[C@H]2C[C@H]1C2=C(CC[C@@]13C)C(=O)OC2` [14-D-Valine-TPL, 14-Dextro-Valine-Triptolide], the pIC50 in the assay on Jurkat (Homo sapiens, Jurkat, 72 h) is 7.44; with Molt-4 it was 7.97; with KG-1, 7.31; in the assay with U937 it was 7.22. This molecule came in with a Therapeutic window in the assay with Jurkat (IC50 of normal blood cells/IC50 of Jurkat) of 5.54. On XPB, the “level of XPB (immunoblot)” value is listed as “significantly inhibited”. Moreover, the “level of Pol II (immunoblot)” value in assay [1] was “significantly inhibited”. Besides, the therapeutic window indices in assay [2] is on record as 5.54-18.58.
